Reference: patent US20250381210A1, “METHODS OF TREATING VASCULAR DEMENTIA” (The Regents of the University of California, priority 2024, published 2025)

Legend:
A3AR = conditions: cited from earlier work
VaD mouse model [1] = test: Satb2 and Cux1 immunostaining in cortical Layer VI after delayed piclidenoson treatment; format: in vivo; conditions: motor somatosensory cortex
Procedure: (§1) VaD in the mouse was modified from white matter stroke model. Briefly, the mice were anesthetized with 2% isoflurane and securely mounted onto a stereotaxic apparatus. Core body temperature of the mice was maintained at 36.5 to 37.5° C. A midline incision was made down the scalp, and a craniotomy was performed with a dental drill. A Nanoliter injector (World Precision Instruments) was used to infuse 27 μg/μL of L-NIO (Sigma-Aldrich, 400-600) in sterile saline (Hospira) with Micro4 Controller injector (World Precision Instruments), at the speed of 100 nL/min. To avoid damage to motor cortex, the glass pipette (Wrld Precision Instruments, 1B100F-4) containing the L-NIO was inserted through the cortex of the frontal lobe into the underlying subcortical WM at an angle of 36°. Three injections (each of 0.3 μL of L-NIO solution) were made in the following coordinates: AP +0.80 mm, ML +2.00 mm, DV −1.56 mm; AP +0.80 mm, ML +2.83 mm, DV −1.60 mm; and AP +0.80 mm, ML +3.66 mm, DV −1.61 mm. Localized vasoconstriction leads to focal ischemia in the subcortical WM. Female mice were excluded because estrogen is potentially preventative against ischemic stroke.
(§2) Immunostaining was performed by brain section blocking in 5% normal donkey serum for 1 hour at room temperature, incubating in primary antibody overnight at 4° C., and in secondary antibody for 1 hour at room temperature. For the performance using CD39 and Pdgfrβ antibodies, antigen retrieval using sodium citrate buffer ([…], pH 6.0), in pressure cooker for 3 min was applied before blocking. All sections were counterstained with 4′,6-diamidino-2-phenylindole (DAPI). The antibodies used in this study are listed below.
(§3) • 1. Quantification of MBP and NF160 volume for FIGS. 26I, 28M, 28N. Imaris (Bitplane, version 10.0.0) using surface function; all the channels were threshold with the same absolute intensity against the background. Because the absolute volume of cerebral white matter varies between coronal slices depending on the coordinate along anterior-posterior axis, it is difficult to directly compare the absolute volume of NF160 or MBP between groups. The volume of ipsilateral white matter is very similar to the contralateral white matter, we first normalized the volume of NF160 or MBP at the ipsilateral side to the contralateral side (no lesion), and then compare the normalized value between groups. This may be a more reasonable way to investigate how the axon reprojection and myelin regrowth is changed by piclidenoson (CF101) treatment. For each animal, 4 slices, with 300 μm interval across the lesion core along the anterior-posterior axis, were quantified. • 2. Quantification of absolute core sizes (FIG. 16F). For each animal, all the slices that cover the lesion core were stained with MBP, NF160, DAPI, and GFAP. The area of core is defined as brain region with NF160/MBP debris, high density of DAPI, and GFAP boundary. The size of core area is measured in ImageJ. The absolute core size is defined by the sum of core area×the slice thickness from all slices. • 3. Quantification of relative core sizes (FIG. 28I, 28L). For each animal, 4 slices, with 300 μm interval across the lesion core along the anterior-posterior axis, were quantified using ImageJ. The relative core sizes were normalized by the average of vehicle treated group. • 4. Quantification of c-Fos cells (FIG. 16R, 16S, 28Q, 28R). For slices from prefrontal cortex, the number of c-Fos cells were quantified by Imaris using spots function, and normalized with the number of neurons (NeuN+) in the same region of interest (ROI). For slices from hippocampus, the number of c-Fos cells were quantified by Imaris and normalized with the volume of ROI because it is difficult to normalize with the number of neurons due to compact pyramidal cell layer. The same quality threshold was used for all samples. • 5. Quantification of CD39 in human IHC (FIG. 28D, 28E). […]

[2] = recent phase III clinical trials for psoriasis; cited from earlier work
VaD mouse model [3] = test: c-Fos quantification in PFC (AC) and HPC (CA2/3) after delayed piclidenoson treatment; format: in vivo; conditions: VaD animals
Procedure: as §1, §2, §3

VaD mouse model [4] = test: Grid walking task after delayed piclidenoson treatment; format: in vivo; conditions: three weeks post piclidenoson treatment
Procedure: as §1, with “stroke. Osmotic mini-pumps (1002, 1004) were subcutaneously implanted and connected to right lateral ventricle through brain infusion kit 3 (Alzet). The brain infusion kits were fixed onto the skull with super glue (Loctite, 45198). For 4-week treatment, 1004 mini-pumps were used to delivery 400 µM of piclidenoson (in 1% DMSO in saline) at the speed of 0.11 μL/h; For 2-week treatment, 1002 mini-pumps were used to deliver 200 μM of piclidenoson at the speed of 0.23 μL/h. For Grid walking test, the mice were tested 1-day pre-, 7-day, 30-day, and 60-day post-VaD in progressiveness investigation, and 1-day pre-, 4-day and 21-day post-VaD in piclidenoson treatment study. Behavior tests were scored by observers who were masked to the treatment group of the animals.” for “stroke.”

VaD mouse model [5] = test: Acute piclidenoson, infusion into lateral ventricle 30-min after VaD induction; lesion size and BBB leakage by immunostaining; format: in vivo; conditions: acute administration 30-min post stroke, for 1-2 weeks, direct infusion into lateral ventricle, vs vehicle
Procedure: as §1, §2
High-resolution confocal images in z-stacks were acquired (Nikon C2). Area measurements of the infarct core, WM axonal projections stained with NF160 and MBP were quantified with Imaris (Bitplane, version 10.0.0) using surface function; all the channels were threshold with the same absolute intensity against the background. […]
• 1. Quantification of MBP and NF160 volume for FIGS. 26I, 28M, 28N. […] For each animal, 4 slices, with 300 μm interval across the lesion core along the anterior-posterior axis, were quantified. • 2. Quantification of absolute core sizes (FIG. 16F). […] The size of core area is measured in ImageJ. […] Quantification of relative core sizes (FIG. 28I, 28L). For each animal, 4 slices, with 300 μm interval across the lesion core along the anterior-posterior axis, were quantified using ImageJ. […] Quantification of c-Fos cells (FIG. 16R, 16S, 28Q, 28R). For slices from prefrontal cortex, the number of c-Fos cells were quantified by Imaris using spots function, and normalized with the number of neurons (NeuN+) in the same region of interest (ROI). […]

VaD mouse model [6] = test: Novel Object Recognition (NOR) test after delayed piclidenoson treatment; format: in vivo; conditions: delayed treatment from 5 days after VaD induction, legend: one sample paired t test compared to 50%
Procedure: VaD in the mouse was modified from white matter stroke model. Briefly, the mice were anesthetized with 2% isoflurane and securely mounted onto a stereotaxic apparatus. Core body temperature of the mice was maintained at 36.5 to 37.5° C. A midline incision was made down the scalp, and a craniotomy was performed with a dental drill. A Nanoliter injector (World Precision Instruments) was used to infuse 27 μg/μL of L-NIO (Sigma-Aldrich, 400-600) in sterile saline (Hospira) with Micro4 Controller injector (World Precision Instruments), at the speed of 100 nL/min. To avoid damage to motor cortex, the glass pipette (Wrld Precision Instruments, 1B100F-4) containing the L-NIO was inserted through the cortex of the frontal lobe into the underlying subcortical WM at an angle of 36°. Three injections (each of 0.3 μL of L-NIO solution) were made in the following coordinates: AP +0.80 mm, ML +2.00 mm, DV −1.56 mm; AP +0.80 mm, ML +2.83 mm, DV −1.60 mm; and AP +0.80 mm, ML +3.66 mm, DV −1.61 mm. Localized vasoconstriction leads to focal ischemia in the subcortical WM. […] Osmotic mini-pumps (1002, 1004) were subcutaneously implanted and connected to right lateral ventricle through brain infusion kit 3 (Alzet). The brain infusion kits were fixed onto the skull with super glue (Loctite, 45198). […] All tests were performed 3-4 weeks after VaD. […] For NOR, the testing mice were allowed to explore an open field arena (30 cm×30 cm) with 2 identical objects for 12 min on the first day. Then the one object was replaced to a novel object and the mice were allowed to explore the 2 different objects for 8 min. The exploration was recorded and the time to explore each object was analyzed by ANY-maze. The data were presented as exploration ratio of time spent exploring the novel object versus both objects. For NOR, mice were habituated in an open field arena (41.5 cm×41.5 cm×41.5 cm) for 10 min. […] The exploration was recorded and the time to explore each object was analyzed by ANY-maze, and/or manually hand-scored. […]

VaD mouse model [7] = test: Delayed piclidenoson (5 days after VaD induction); lesion size, axon and myelin volume by immunostaining; format: in vivo; conditions: delayed treatment from 5 days after VaD induction, vs vehicle; for VaD lesion size: examined 3 weeks after treatment
Procedure: as §1, §2
High-resolution confocal images in z-stacks were acquired (Nikon C2). Area measurements of the infarct core, WM axonal projections stained with NF160 and MBP were quantified with Imaris (Bitplane, version 10.0.0) using surface function; all the channels were threshold with the same absolute intensity against the background. The parameters for scanning were kept constant across treatment, and conditions.
as §3, with “(ROI).” for “(ROI). For slices from hippocampus, the number of c-Fos cells were quantified by Imaris and normalized with the volume of ROI because it is difficult to normalize with the number of neurons due to compact pyramidal cell layer. The same quality threshold was used for all samples. • 5. Quantification of CD39 in human IHC (FIG. 28D, 28E).”

## CNC(=O)[C@H]1O[C@@H](n2cnc3c(NCc4cccc(I)c4)ncnc32)[C@H](O)[C@@H]1O [piclidenoson, 1-deoxy-1-[6-[(iodophenyl)methyl]amino]9H-purine-9-yl]-N-methyl-(-D-ribofuranuronamide]
A3AR; A3AR vs A1AR and A2bAR
  potency in A3AR action relative to A1AR and A2bAR: 50 fold
A3AR
  non-specific effects on other adenosine receptors: minimal non-specific effects on other adenosine receptors
VaD mouse model [1]
  Cux1 expression, Cux1+/NeuN (%) in Layer VI above infarct lesion: significantly ameliorated
  Satb2 expression, Satb2+/NeuN (%) in Layer VI near infarct lesion: significantly ameliorated
VaD mouse model [1]; listed as CD101
  Satb2 expression, Satb2+/NeuN (%) in Layer VI near infarct lesion: VaD_Veh vs VaD_CD101, *p<0.05
VaD mouse model [1]; listed as CF101
  Cux1 expression, Cux1+/NeuN (%) in Layer VI above infarct lesion: significantly ameliorated
  Satb2 expression, Satb2+/NeuN (%) in Layer VI near infarct lesion: significantly ameliorated
VaD mouse model [1]; listed as Pic
  Cux1 expression, Cux1+/NeuN (%) in Layer VI above infarct lesion: Con_Veh vs VaD_Pic, n.s.=not significant
  Satb2 expression, Satb2+/NeuN (%) in Layer VI near infarct lesion: Con_Veh vs VaD_Pic, n.s.=not significant
[2]
  safety in humans: safely used in humans
VaD mouse model [3]
  c-Fos expression in HPC CA2/3, c-Fos+ cell numbers per mm^3: restored c-Fos expression
  c-Fos expression in PFC anterior cingulate (AC), c-Fos/NeuN (%): restored c-Fos expression
VaD mouse model [3]; listed as CF101
  c-Fos expression in HPC CA2/3, c-Fos+ cell numbers per mm^3: restored c-Fos expression
  c-Fos expression in PFC anterior cingulate (AC), c-Fos/NeuN (%): restored c-Fos expression
VaD mouse model [3]; listed as Pic
  c-Fos expression in HPC CA2/3, c-Fos+ cell numbers per mm^3: Con_Veh vs VaD_Pic, n.s.=not significant
  c-Fos expression in PFC anterior cingulate (AC), c-Fos/NeuN (%): Con_Veh vs VaD_Pic, n.s.=not significant
VaD mouse model [4]
  grid walking task, motor deficit: successfully rescued the motor deficit
VaD mouse model [4]; listed as CF101
  grid walking task, motor deficit: successfully rescued the motor deficit
VaD mouse model [4]; listed as Pic
  grid walking task, motor deficit: VaD_Veh vs VaD_Pic, ##p<0.01
VaD mouse model [5]
  VaD lesion size: may reduce lesion size
  blood brain barrier (BBB) leakage (immunoreactivity of mouse IgG): significantly reduced blood brain barrier (BBB) leakage
VaD mouse model [5]; listed as CF101
  blood brain barrier (BBB) leakage (immunoreactivity of mouse IgG): reduced blood brain barrier (BBB) leakage
VaD mouse model [5]; listed as Pic
  blood brain barrier (BBB) leakage (immunoreactivity of mouse IgG): Veh vs Pic, *p<0.05
VaD mouse model [6]
  NOR memory test, memory deficits (novel object preference): significantly reduced memory deficits
VaD mouse model [6]; listed as CF101
  NOR memory test, memory deficits (novel object preference): significantly reduced memory deficits
VaD mouse model [6]; listed as Pic
  NOR memory test, memory deficits (novel object preference): Con_Veh, Con_Pic, and VaD_Pic groups, *p<0.05
VaD mouse model [7]
  VaD lesion size: significant reduction of lesion size
  axon volume / axonal projections (NF160 immunostaining): not changed
  myelin volume / markers of myelination (MBP immunostaining) in affected WM: significantly increased
VaD mouse model [7]; listed as CF101
  VaD lesion size: significant reduction of lesion size
  axon volume / axonal projections (NF160 immunostaining): not changed
  myelin volume / markers of myelination (MBP immunostaining) in affected WM: significantly increased
VaD mouse model [7]; listed as Pic
  VaD lesion size: Veh vs Pic, *p<0.05
  axon volume / axonal projections (NF160 immunostaining): Veh vs Pic, n.s.=not significant
  myelin volume / markers of myelination (MBP immunostaining) in affected WM: Veh vs Pic, *p<0.05
